Test results reported in US6136821A, “Naphthyridine derivatives” (Novartis AG, priority 1996, dated 2000).

Assays:
human eosinophils = experiment: Inhibition of eosinophil activation by formyl-MetLeuPhe (fMLP); oxidative burst (lucigenin chemiluminescence); assay type: cell-based; details: fMLP 1 μM, lucigenin 25 μM, purified human eosinophils
Protocol: Anti-inflammatory activity: Inhibition of eosinophil activation by formyl-MetLeuPhe (fMLP)
Purified human eosinophils (10^4 /well in 0.2 ml HBSS) are stimulated with fMLP (1 μM) in the presence of lucigenin (25 μM). Inhibition of the oxidative burst (measured as changes in chemiluminescence) is determined from dose response curves using the logistic equation.

Water solubility = assay type: physicochemical; details: N-methyl-D-glucamine salt

SMILES | IC50 (human eosinophils) | water solubility (Water solubility)
Nc1cc2cccnc2c(-c2cccc3nonc23)n1 [Example 2, 6-amino-8-(4-benzo[c]furazanyl)-1,7-naphthyridine] | 6 nM | 
CNC[C@H](O)[C@@H](O)[C@H](O)[C@H](O)CO.O=C(O)c1ccc(-c2cc3cccnc3c(-c3cccc4nonc34)n2)cc1 [Example 34, 6-(4-carboxyphenyl)-8-(4-benzo[c]furazanyl)-1,7-napthyridine: salt with N-methyl-D-glucamine] |  | water soluble
